Assays:
[1] = tested on: insulin+ cells (beta cells); assay: Immunohistochemical characterisation of pancreata, GABA and Glu001 combination study; type: in vivo, mice; conditions: 3-month old WT animals treated for a month, daily IP; vs saline
Procedure: To determine if the combination of GABA and Glu001 could increase beta-cell mass wild type mice were treated with 1) saline, 2) GABA (daily IP injections of 50 μM/40 g mouse), 3) Glu001 (daily IP injections of 4 mg/kg) and 4) GABA+Glu001.

[2] = tested on: beta-like cells; conditions: upon GABA administration, as mentioned in WO14048788; cited from earlier work

SMILES: NCCCC(=O)O [GABA, gamma-amino butyric acid]
- insulin+ cell count / beta cell mass [1]: expected increase
- beta-like cell number [2]: progressive increase
